Experimental data as given in US7081457B2 (Wyeth, priority 1999, dated 2006).

Columns and labels:
alkaline phosphatase = experiment: cells; settings: read-out: EC50 (alkaline phosphatase data, printed in HPR CV-1 column)
ovulation = experiment: Ovulation Inhibition; settings: in vivo

| SMILES | melting point [°C] | EC50 (alkaline phosphatase) [nM] | Ovulation Inhibition ED100 (ovulation) [mg/kg] |
| --- | --- | --- | --- |
| CC1(C)OC(=S)Nc2ccc(-c3cc(F)cc(Cl)c3)cc21 [Example 27, 6-(3-Chloro-5-fluorophenyl)-4,4-dimethyl-1,4-dihydro-2H-3,1-benzoxazine-2-thione] | 204 to 205 |  |  |
| CC1(C)OC(=S)Nc2ccc(-c3cccc(C#N)c3)cc21 [Compound 4, 3-(4,4-Dimethyl-2-thioxo-1,4-dihydro-2H-benzo[d][1,3]oxazin-6-yl)-benzonitrile] | 236 to 237 | 0.4 |  |
| Cc1cc(C#N)sc1-c1ccc2c(c1)C(C)(C)OC(=S)N2 [Example 16, 5-(4,4-Dimethyl-2-thioxo-1,4-dihydro-2H-3,1-benzoxazin-6-yl)-4-methylthiophene-2-carbonitrile] | 211 to 212 |  |  |
| CC1(C)OC(=S)Nc2ccc(-c3csc(C#N)c3)cc21 [Compound 2, 4-(4,4-Dimethyl-2-thioxo-1,4-dihydro-2H1-benzo [d][1,3]oxazin-6-yl)-thiophene-2-carbonitrile] |  |  | 1 |
| CC1(C)OC(=S)Nc2ccc(-c3cc(F)cc(C(F)(F)F)c3)cc21 [Example 43, 6-[3-Fluoro-5-(trifluoromethyl)phenyl]-4,4-dimethyl-1,4-dihydro-2H-3,1-benzoxazine-2-thione] | 204 to 206 |  |  |
| CC1(C)OC(=S)Nc2ccc(-c3cc(C#N)ccc3F)cc21 [Example 47, 3-(4,4-Dimethyl-2-thioxo-1,4-dihydro-2H-3,1-benzoxazin-6-yl)-4-fluorobenzonitrile] | 250 to 251 |  |  |
